target: ROCK2 (human) (UniProt O75116); assay: Inhibition of ROCK2 Kinase Activity
Sequence (O75116 whole entry, looked up): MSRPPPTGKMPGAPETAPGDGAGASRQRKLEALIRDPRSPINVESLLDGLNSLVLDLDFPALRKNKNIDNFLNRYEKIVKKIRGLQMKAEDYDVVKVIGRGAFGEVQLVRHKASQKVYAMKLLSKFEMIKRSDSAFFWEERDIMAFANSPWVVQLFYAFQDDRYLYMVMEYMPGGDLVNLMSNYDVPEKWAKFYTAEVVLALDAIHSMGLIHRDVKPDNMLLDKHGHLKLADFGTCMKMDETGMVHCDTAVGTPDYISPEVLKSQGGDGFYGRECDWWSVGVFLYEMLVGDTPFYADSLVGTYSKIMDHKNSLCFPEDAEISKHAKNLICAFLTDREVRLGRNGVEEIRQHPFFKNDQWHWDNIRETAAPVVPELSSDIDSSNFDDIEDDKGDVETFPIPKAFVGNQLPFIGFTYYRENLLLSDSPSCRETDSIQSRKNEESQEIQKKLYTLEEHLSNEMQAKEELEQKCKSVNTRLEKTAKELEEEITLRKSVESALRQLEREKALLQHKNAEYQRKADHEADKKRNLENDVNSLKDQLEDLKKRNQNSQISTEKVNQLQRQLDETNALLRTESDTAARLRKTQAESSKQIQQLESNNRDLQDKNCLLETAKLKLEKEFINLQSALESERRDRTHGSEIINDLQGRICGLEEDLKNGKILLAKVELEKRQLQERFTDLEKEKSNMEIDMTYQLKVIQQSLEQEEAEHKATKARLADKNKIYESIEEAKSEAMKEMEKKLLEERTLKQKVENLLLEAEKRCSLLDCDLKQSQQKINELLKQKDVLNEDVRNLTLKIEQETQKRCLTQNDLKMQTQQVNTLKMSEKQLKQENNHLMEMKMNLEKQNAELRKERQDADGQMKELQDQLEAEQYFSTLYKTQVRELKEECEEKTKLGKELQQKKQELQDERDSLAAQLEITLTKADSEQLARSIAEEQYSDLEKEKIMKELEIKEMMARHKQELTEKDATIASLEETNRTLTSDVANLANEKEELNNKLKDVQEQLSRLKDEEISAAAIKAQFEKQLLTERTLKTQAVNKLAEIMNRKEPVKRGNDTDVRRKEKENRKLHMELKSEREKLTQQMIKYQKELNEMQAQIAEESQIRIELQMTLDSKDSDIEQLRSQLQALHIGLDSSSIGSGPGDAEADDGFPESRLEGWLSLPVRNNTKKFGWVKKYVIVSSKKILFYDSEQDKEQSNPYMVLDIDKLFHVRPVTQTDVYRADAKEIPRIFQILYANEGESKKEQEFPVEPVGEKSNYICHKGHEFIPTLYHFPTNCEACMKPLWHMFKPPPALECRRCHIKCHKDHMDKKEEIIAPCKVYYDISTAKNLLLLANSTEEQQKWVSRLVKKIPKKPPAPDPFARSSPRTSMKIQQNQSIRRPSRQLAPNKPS

Row | SMILES | IC50
1 | COc1cc(Nc2cc3cc(OC4CCNCC4)ccc3cn2)cc(OC)c1OC | ≤ 1000 nM
2 | Ic1c(OC2CCNCC2)ccc2cnccc12 | ≤ 1000 nM
3 | COc1ccc(-c2c(OC3CCNCC3)ccc3cnccc23)cc1N | ≤ 1000 nM
4 | Clc1cc2cnccc2c(Cl)c1OC1CCNCC1 | ≤ 1000 nM
5 | Clc1cncc2ccc(OC3CCNCC3)cc12 | ≤ 1000 nM

Next, values leading:

Row | IC50 | SMILES
6 | ≤ 1000 nM | Brc1c(OC2CCNCC2)ccc2cnccc12
7 | ≤ 1000 nM | COc1ccc2cc(CN3CCC(Oc4ccc5cnccc5c4)CC3)ccc2c1
8 | ≤ 1000 nM | c1ccc2oc(-c3c(OC4CCNCC4)ccc4cnccc34)cc2c1
9 | ≤ 1000 nM | Clc1cc(OC2CCNCC2)cc2ccncc12
10 | ≤ 1000 nM | Cc1cc(OC2CCNCC2)c(C)c2ccncc12
11 | ≤ 1000 nM | c1ccc(-c2cc3cnccc3cc2OC2CCNCC2)cc1
12 | ≤ 1000 nM | CN1CCCC(COc2ccc3cnccc3c2Br)C1 (stereo not drawn)
13 | ≤ 1000 nM | c1cc2c(cc1Nc1cc3cc(OC4CCNCC4)ccc3cn1)OCO2

Source: the Kinase Knowledgebase extract (Sharma et al. 2016)
